Measured values taken from US6855308B2, “PACAP compositions and methods for tumor imaging and therapy” (Thomas Jefferson University, priority 2001, dated 2005).
Entries after “also recorded” stand apart in the source; their conditions may differ. Ends that are not written are not given here. * marks the point of attachment. DTPA = O=C(O)CN(CCN(CC(=O)O)CC(=O)O)CCN(CC(=O)O)CC(=O)*

What was measured:
breast tumors = assay: tumor uptake in tumor-bearing mice; settings: 24 hr post-injection
Protocol: (§1) Approximately 5×10^6 viable cells from either tumor cell line are implanted in the right thigh of each mouse, and tumors are allowed to form. […] Animals are sacrificed at 15 min, 1 hr, 2 hr, 4 hr and 24 hr post-injection, and % of ID/g tissue is determined in all tissues. A control group of tumor-bearing mice is injected with PACAP27 mono-iodinated with ^125I. […] All animals are imaged using a GE STARCAM gamma camera equipped with a dedicated computer and a low energy parallel hole collimator.
(§2) The co-injected ^99mTc-TP 3475 and ^111In-DTPA-D-Phe^1-Octreotide in the mouse tissues were counted by using the characteristic energy windows for their respective radionuclides (±15 or 20%); e.g., 140 KeV for ^99mTc, and 173 KeV and 247 KeV for ^111In. The ^111In counts in the tissues were again determined when ^99mTc was completely decayed (e.g., 10-12 half-lives).

[1] = parameters: species or system Sprague-Dawley rats; settings: rat, in vivo, iv
Protocol: The blood clearance of ^99mTc-TP 3475 was studied in Sprague-Dawley rats as follows. Three Sprague Dawley rats, each weighing approximately 250 grams, were injected through one lateral tail vein with one mCi of ^99mTc-TP 3475, and serial blood samples were drawn in triplicate through the other lateral tail vein at 1, 5, 10, 15, and 30 minutes post-injection, and at 1, 2, 4, 6, 18 and 24 hours post injection. The blood samples were weighed, and radioactivity was counted against a standard ^99mTc solution prepared at the time of injection using standard scintillation counting techniques. The % ID/g plotted as a function of time.

in vivo = settings: nude, mouse, iv, total radioactivity
Protocol: as §1, §2

T47D xenografts = assay: receptor blocking study with PACAP in tumor-bearing mice; type: in vivo; settings: PACAP pre-injected; nude mice with T47D xenografts
Protocol: In order to determine receptor specificity of […] in human breast tumors, receptor blocking studies with PACAP were performed. In nude mice with T47D xenografts, ^99mTc-TP 3475 tumor uptake was reduced by approximately 50% when PACAP was pre-injected.

[2] = type: physicochemical
Protocol: For the metallization reaction, the vial contents were allowed to come to ambient temperature, and 10-40 mCi ^99mTc in 200 μl 0.9% NaCl was injected into the vial. The mixture was incubated at 100° C. for 30 min, and the pH of the reaction mixture was raised to 6-6.5 by addition of 1 ml 0.1 M Na2HPO4. One-hundred twenty-five mg of Na-ascorbate was added as a stabilizing agent. […] The yields at 22° C. are quantitative as determined by HPLC, producing a single peak at Rt. 12.5 min.

primary breast cancers = settings: cited from earlier work
[3] = system: internal anal sphincter (IAS) smooth muscle; assay: basal tension of opossum internal anal sphincter (IAS) smooth muscle; parameters: species or system opossum (Didelphis virginiana); settings: 10^−5 M concentration
Protocol: PACAP27 is known to cause a concentration-dependent fall in the basal tension of IAS, by the assay described in Rattan S et al., J. Pharmcol. Exper. Thera. 263: 722-728, 1997, the entire disclosure of which is herein incorporated by reference. This IAS assay was performed with increasing concentrations of TP 3475 until a maximum fall is reached, essentially as described below. PACAP27 was used as a control.
[…]. The large blood vessels and extraneous tissues including the external […] were removed, and the anal canal was opened and pinned flat with the mucosal side up on a dissecting tray containing oxygenated Krebs' solution (NaCl, 118.07; KCl, 4.69; CaCl2, 2.52; MgS04, 1.16; NaH2PO4, 1.01; NaHC03, 25; and glucose, 11.10). The mucosa was removed, and internal anal sphincter circular smooth muscle strips (approximately 2 mm×1 cm) were prepared from the lowermost part of the anal canal.
Measurement of isometric tension—The IAS smooth muscle strips were transferred to temperature-controlled 2 ml “muscle baths” containing Krebs' solution, bubbled continuously with a mixture of 95% O2-5% CO2. […] Isometric tensions were recorded on a Beckman Dynograph recorder (Beckman Instruments, Schiller Park, Ill.). […] Both optimal length and base-line were determined as described in Rattan S et al., 1997, supra.

[4] = system: PACAP, VIP-R1 and VIP-R2 receptors; settings: cited from earlier work
normal lung membrane = settings: cited from earlier work
adenylate cyclase = settings: pituitary cells; cited from earlier work
[5] = reduced from 100 for PACAP27; cited from earlier work

## [C-]#[N+]CC(C)(C)OC.[C-]#[N+]CC(C)(C)OC.[C-]#[N+]CC(C)(C)OC.[C-]#[N+]CC(C)(C)OC.[C-]#[N+]CC(C)(C)OC.[C-]#[N+]CC(C)(C)OC.[Tc] [^99mTc-Sesta-MIBI]
Breast tumors
  tumor uptake: 0.18±0.0 % ID/g

## CC[C@H](C)[C@H](NC(=O)CNC(=O)[C@H](CC(=O)O)NC(=O)[C@H](CO)NC(=O)[C@@H](N)Cc1c[nH]cn1)C(=O)N[C@@H](Cc1ccccc1)C(=O)N[C@H](C(=O)N[C@@H](CC(=O)O)C(=O)N[C@@H](CO)C(=O)N[C@@H](Cc1ccc(O)cc1)C(=O)N[C@@H](CO)C(=O)N[C@@H](CCCNC(=N)N)C(=O)N[C@@H](Cc1ccc(O)cc1)C(=O)N[C@@H](CCCNC(=N)N)C(=O)N[C@@H](CCCCN)C(=O)N[C@@H](CCC(N)=O)C(=O)N[C@@H](CCSC)C(=O)N[C@@H](C)C(=O)N[C@H](C(=O)N[C@@H](CCCCN)C(=O)N[C@@H](CCCCN)C(=O)N[C@@H](Cc1ccc(O)cc1)C(=O)N[C@@H](CC(C)C)C(=O)N[C@@H](C)C(=O)N[C@@H](C)C(=O)N[C@H](C(=O)N[C@@H](CC(C)C)C(=O)NCCCC(=O)NCC(=O)N[C@H](C)C(=O)NCC(=O)NCC(=O)O)C(C)C)C(C)C)[C@@H](C)O [^99mTc-TP 3475, metal not drawn]
[1]; Sprague-Dawley
  blood clearance α-t½: approximately 6 min
  blood clearance β-t½: approximately 90 min
[1]
  time in which 75% of the radioactivity is cleared from the circulation: about 12 minutes
In vivo
  tissue uptake at 24 h: ~0.2 %ID/g
T47D xenografts
  reduction of tumor uptake: approximately 50%
[2]
  stability: stable for 24 hr

## C[C@@H](O)[C@@H]1NC(=O)[C@H](CCCCN)NC(=O)[C@@H](Cc2c[nH]c3ccccc23)NC(=O)[C@H](Cc2ccccc2)NC(=O)[C@@H](NC(=O)[C@@H](Cc2ccccc2)NC(=O)CN(CCN(CCN(CC(=O)O)CC(=O)O)CC(=O)O)CC(=O)O)CSSC[C@@H](C(=O)N[C@H](CO)[C@@H](C)O)NC1=O [^111In-DTPA-D-Phe^1-Octreotide, metal not drawn]
In vivo
  tissue uptake at 24 h: 0.09 ± 0.01 %ID/g
Primary breast cancers; 52 primary breast cancers
  positive scintigraphy: 75%
Primary breast cancers; patients with histologically-proven metastases
  patients in whom imaging of axillae detected non-palpable, cancer-containing lymph nodes: 4 of 13

## HSDGIFTDSYSRYRKQMAVKKYLAAVL [PACAP27]
[3]
  % fall in IAS tension: equivalent fall in IAS tension; also recorded: equal
[4]
  receptor binding affinity: binds with high affinity to PACAP, VIP-R1 and VIP-R2 receptors
Normal lung membrane
  IC50: ~1.5 nM
Adenylate cyclase
  potency in stimulating adenylate cyclase relative to VIP28: ten times more potent

## PACAP27 linked to DTPA at its N-terminus: PACAP27 linked to DTPA at its N-terminus (Reubi et al. 1997) ({DTPA}-HSDGIFTDSYSRYRKQMAVKKYLAAVL; ends and bridges not checked; UniProt P18509 132-158, looked up)
[5]
  biological activity: < 0.01

## TP 3475: PACAP27 linked via a C-terminal Aba spacer to a Gly-(D)Ala-Gly-Gly chelating agent; SEQ ID NO: 5 (HSDGIFTDSYSRYRKQMAVKKYLAAVLXGAGG; C-terminal Aba spacer, Gly-(D)Ala-Gly-Gly chelator; PACAP analog TP 3475)
[3]
  % fall in IAS tension: equivalent fall in IAS tension; also recorded: equal

## VIP28: 28-amino acid vasoactive intestinal peptide
[4]
  receptor binding affinity: binds with high affinity only to VIP-R1 and VIP-R2 receptors
Normal lung membrane
  IC50: ~15 nM
